Consider two molecules from patent US20150087722A1, “TREATMENT FOR BREAST TUMOR CELL METASTASIS” (China Medical University, priority 2012, published 2015).

pIC50: −log10 of the molar value.

Assay [1] deals with Skin Tumor Cell (A2058 cell strain). The assay can be described thus: MTT cell viability assay. Format: cell-based. The settings on record: Homo sapiens. On the technique in general: Tetrazolium assays rely on reduction of a dye to a coloured formazan, in cell work by metabolically active cells.
Assay [2] has as its system MMP-2, MMP-9, uPA, uPAR, TIMP-1, TIMP-2, PAI-1 in breast tumor cells. The experiment in a line: western blotting of metastasis-related proteins. Format: cell-based, human. The settings on record: 0.5, 1 and 2 μM, 24 h, with dose increasing. On the procedure:
The steps of western blotting include: washing cells with PBS twice at 4° C.; adding a lysis buffer and rubbing the cells by a rubbr policeman so as to lyse cells; putting the lysed cell solution into a 1.5 ml microcentrifuge tube and shaking for 1 min; centrifuging at 12000 rpm for 10 min and taking the supernatant; measuring concentration of the protein through a Bio-Rad protein assay kit; and storing the remained extracted protein solution at −70° C.; taking 100 μg protein solution and adding a SDS/protein loading buffer having the same volume, where the SDS/protein loading buffer has a concentration two times larger than the protein solution; boiling the mixture of the protein solution and the SDS/protein loading buffer at 100° C. for 10 min; cooling and loading the protein samples in each hole of gel; adjusting the voltage to 100 V and running the protein samples on the gel until the tracking dye in the sample buffer reaches the bottom of the gel; and subsequently transferring the protein from the gel using electrophoresis. […] Then luminescence image equipment was used, where the PVDF was placed onto a black metal plate by a plastic pincer and the face including protein was upwards, a 1:1 mixed Chemiluminesent Substrate was added into the membrane and the exposure time depends on the fluorescence intensity of antibodies. […]
For orientation: In western blotting, separated proteins are transferred to a membrane and probed.

Assay [3] deals with EMT-related proteins in breast tumor cells MDA-MB-435. The experiment in a line: western blotting of EMT-related proteins. Format: cell-based, human. The settings on record: MDA-MB-435, 2.5, 5 and 7.5 μM, 24 h, with dose increasing. On the procedure:
FIG. 2A illustrates the expression results of EMT-related proteins in breast tumor cells MDA-MB-231 after the breast tumor cells MDA-MB-231 have been respectively cultured under compound II having concentrations of 0, 0.5, 1 and 2 μM for 24 h; and FIG. 2B illustrates the expression results of EMT-related proteins in breast tumor cells MCF-7 after the breast tumor cells MCF-7 have been respectively cultured under the compound II having concentrations of 0, 10, 15 and 20 μM for 24 h. FIG. 3A illustrates the western blotting results of EMT-related proteins in the breast tumor cells MDA-MB-468, where the breast tumor cells MDA-MB-468 are treated with the compound I having concentrations of 0, 0.5, 1 and 2 μM for 24 h, and FIG. 3B illustrates the western blotting results of EMT-related proteins in the breast tumor cells MDA-MB-435, where the breast tumor cells MDA-MB-435 are treated with the compound I having concentrations of 0, 2.5, 5 and 7.5 μM for 24 h. FIG. 4 illustrates the western blotting results of EMT-related proteins in the human normal breast cells MCF-10A stimulated by TNF-α/TGF-β, where the human normal breast cells MCF-10A are treated with the compound I having concentrations of 2 μM for 24 h. The human normal breast cells stimulated by TNF-α/TGF-β can cause TNF-α/TGF-β-induced EMT in the human normal breast cells MCF-10A. The steps of western blotting include: washing cells with PBS twice at 4° C.; adding a lysis buffer and rubbing the cells by a rubbr policeman so as to lyse cells; putting the lysed cell solution into a 1.5 ml microcentrifuge tube and shaking for 1 min; centrifuging at 12000 rpm for 10 min and taking the supernatant; measuring concentration of the protein through a Bio-Rad protein assay kit; and storing the remained extracted protein solution at −70° C.; taking 100 μg protein solution and adding a SDS/protein loading buffer having the same volume, where the SDS/protein loading buffer has a concentration two times larger than the protein solution; boiling the mixture of the protein solution and the SDS/protein loading buffer at 100° C. for 10 min; cooling and loading the protein samples in each hole of gel; adjusting the voltage to 100 V and running the protein samples on the gel until the tracking dye in the sample buffer reaches the bottom of the gel; and subsequently transferring the protein from the gel using electrophoresis. A PVDF membrane was soaked in methanol until the paper was totally wet. The paper was arranged in a transfer tank placed in a 4° C. ice box, and the protein transfer was performed at a current of […] for 4 h. The PVDF membrane was then taken out, placed in a PBS blocking solution including 1% BSA and shaken for 2 h. Then the PVDF membrane was placed in a blocking solution including a primary antibody and slowly shaken at 100 rpm for 1 h at the room temperature. Subsequently the PVDF membrane was washed with PBST for third times, each time for 3-5 min. According to different […] and different dilution ratios, the PVDF membrane was shaken for 2 h on a horizontal rotator and then washed with PBST for three times. Then luminescence image equipment was used, where the PVDF was placed onto a black metal plate by a plastic pincer and the face including protein was upwards, a 1:1 mixed Chemiluminesent Substrate was added into the membrane and the exposure time depends on the fluorescence intensity of antibodies.

The pIC50 is the negative decadic logarithm of the IC50, by convention in mol/L. A lower pIC50 goes with a large IC50. `COC1=C(OC)C(=O)C(C)=C(C)C1=O` [compound II]: the negative logarithm of the IC50 (pIC50) in assay [1] is 4.63. Moreover, in assay [2], the “expression amount of TIMP-1, TIMP-2 and PAI-1” value is recorded as “increased”; the “expression of MMP-2, MMP-9, uPA and uPAR” value is “inhibited”.

For `COC1=C(OC)C(=O)C(C)=CC1=O` [compound I], in assay [3], the “expression amount of E-cadherin and occludin” value is “increased”; the “expression amount of proteins facilitating tumor cell proliferation (Snail, vimentin, β-catenin)” value is “decreased”.
